Data taken from patent US20180249709A1, “HERBICIDE COMPOSITIONS AND METHODS FOR CONTROLLING GROWTH OF PLANTS OF THE BUCKTHORN FAMILY” (priority 2016, published 2018).
Entries after “also recorded” stand apart in the source; their conditions may differ.

How the values were obtained:
Buckthorn seed radicles = test: Radicle elongation of germinated Buckthorn seeds over 7 days; type: in vivo; conditions: for radicle growth between treatments of various concentrations: MANOVA repeated measures
Procedure: From the seed germination study (above), the first five (5) germinated Buckthorn seeds from each group (same treatment, same site) were set aside for radicle elongation measurements (see FIG. 6). These five were placed together in new Petri plates between two new filter papers dosed with treatment (i.e. same filter setup & treatment as germination study). For each of the 75 germinated seeds (5×15 groups), the initial length of the emerged radicle was measured. The length of the radicle was then re-measured daily for a total of 7 days. […] Therefore, on Day 7 all radicles were also sacrificed and scanned on an Epson® flatbed scanner then analyzed off-label by WinRhizo™ software, which measured the full length as “Brother 1” of the inputted “root”. Using Microsoft Excel, a graph was created to show the average length of radicle 7 days after emergence with standard error, when measured by hand. WinRhizo Day 7 measurements were compared to hand-measured Day 7 measurements to check for accuracy. Another graph was created to show the average growth of the radicle over time. Statistics were done using JMP™ statistical software.

Buckthorn seeds = test: Seed germination of Buckthorn seeds on filter paper in Petri plates; type: in vivo
Procedure: Juglone was purchased from Sigma Aldrich and diluted in sterile water to a 10^−3 M stock solution for 24 hours at 40° C., then further diluted to obtain 10^−4, 10^−5 and 10^−6 M solutions. Seeds were previously collected from 3 different sites (Site 1: Iroquois Shoreline Woods Park in Oakville, Ontario, Canada; Site 2: Ignatius Jesuit Centre in Guelph, Ontario, Canada, and Site 3: Snyder Flats Conservation Area in Bloomingdale, Ontario, Canada) and then placed into cold stratification. For this experiment, seeds were removed from 40 day cold stratification and surface sterilization was done for 30 s in 3% hydrogen peroxide followed by two one minute sterile water rinses. Sheets of 90 mm filter paper were placed on the bottom of Petri plates, followed by 15 seeds, and then topped with another sheet of filter paper. A pipette then dispensed 2 ml of treatment or control onto each plate directly onto the top filter paper, thereby wetting the seeds and bottom filter paper as well. Five reps (plates) were done for each site at each treatment. Plates were then placed into Ziploc bags (to maintain humidity) and kept at 24° C. in the dark. Plates were checked every day for germination (i.e. emergence of the radicle). The number of germinated seeds per plate was recorded daily. Using Microsoft Excel, a graph was created to show the average number of germinated seeds per group with standard error. Statistics were done using JMP statistical software.

O=C1C=CC(=O)c2c(O)cccc21 [Juglone, 5-hydroxy-1,4-naphthalenedione]
colour / appearance of radicles vs control (Buckthorn seed radicles; 10^-3 M Juglone, Day 7): darker brown/black; also recorded: possible damaging effect | radicle elongation (Buckthorn seed radicles; 10^-3 M Juglone, Ignatius Jesuit Centre site, MANOVA, hand-measured): limited radicle elongation significantly | growth of radicles vs controls (Buckthorn seed radicles; 10^-3 M Juglone, all three sites, seven days, T-tests): significantly reduced growth; also recorded: significantly reduced radicle elongation | growth of radicles vs controls (Buckthorn seed radicles; 10^-4 M Juglone, Iroquois Shoreline Woods Park site and Snyder Flats Conservation Area site only, T-tests): significantly reduced growth | radicle growth among the treatments (net WinRhizo values) (Buckthorn seed radicles; ANOVA 2-way with replication, p=0.0005): significant difference in growth | radicle growth between treatments of various concentrations (Buckthorn seed radicles; Ignatius Jesuit Centre site, hand-measured, F(4,19)=0.73, p=0.0264): significant difference | radicle growth between treatments of various concentrations (Buckthorn seed radicles; Iroquois Shoreline Woods Park site, hand-measured, F(4,20)=0.38, p=0.1485): no significant difference | radicle growth between treatments of various concentrations (Buckthorn seed radicles; Snyder Flats Conservation Area site, hand-measured, F(4,19)=0.17, p=0.5339): no significant difference | growth of radicles vs controls (Buckthorn seed radicles; more dilute concentrations (than 10^-4 M), seed from any site): Growth reduction was not achieved | percentage of Buckthorn seeds that germinated, treatment vs control (Buckthorn seeds; 10^-5 M Juglone): consistently significantly lower | percentage of Buckthorn seeds that germinated, treatment vs control (Buckthorn seeds; 10^-6 M Juglone): consistently significantly lower; also recorded: significantly effective in preventing seed germination | overall effect on germination, difference between the treatments (Buckthorn seeds; Day 12, Least Squares Model, control and 10^-3 to 10^-6 M Juglone, F(4,64)=6.2, p=0.003): significant difference | percentage of Buckthorn seeds that germinated, trend with concentration (Buckthorn seeds; Juglone concentration increased above 10^-5 M): appeared to increase
